Reference: patent publication US10174035B2, “6-morpholinyl-2-pyrazolyl-9H-purine derivatives and their use as PI3K inhibitors” (Daiichi Sankyo Company, Limited, priority 2015, dated 2019)

Target: recombinant PI3K δ enzyme (Homo sapiens (Human), UniProt O00329)
Assay: In vitro enzyme assay (Kinase-Glo luminescent kinase assay), PI3Kδ
Assay type: biochemical
Protocol: The Kinase-Glo luminescent kinase assay kit (from Promega) was used to measure kinase activity. In this assay, amount of ATP remaining in solution following a kinase reaction is measured. The effect of compounds on PI3Kδ inhibition was carried out by adding 2.29 μg/ml of recombinant PI3K δ enzyme (Proteros, Germany) to reaction mixture containing assay buffer (50 mM HEPES, pH 7.4, 50 mM NaCl, 0.05% CHAPS) supplemented with 10 mM MgCl2, 5 mM DTT, 60 μM Phosphatidyl inositol bisphosphate (PIP2) and 10 μM ATP in the absence or presence of different concentrations of the compounds in a final volume of 15 μl/well, in a 384 well plate. The reaction mixture was incubated for 2 hours at room temperature. At the end of incubation period the equal volume of Kinase-Glo plus (Promega, V3772), was added per well and the luminescence was measured after incubating for 10 minutes at room temperature in dark. Results were calculated by measuring the luminescence units of test samples to blanks containing no enzyme.
The compounds of the present invention were tested for their selectivity for PI3Kδ over PI3Kα, PI3Kβ and PI3Kγ following the above assay using specific recombinant enzymes (Proteros, Germany) for each kinase. Assay condition of kinase assay (PI3Kα, PI3Kβ, PI3Kγ and PI3Kδ) was as follows. Enzyme: 2.29 μg/mL; ATP: 10 μM; PIP2 substrate: 60 μM and Reaction Time: 2 hours.

Sequence of recombinant PI3K δ enzyme (O00329 whole entry, species assumed): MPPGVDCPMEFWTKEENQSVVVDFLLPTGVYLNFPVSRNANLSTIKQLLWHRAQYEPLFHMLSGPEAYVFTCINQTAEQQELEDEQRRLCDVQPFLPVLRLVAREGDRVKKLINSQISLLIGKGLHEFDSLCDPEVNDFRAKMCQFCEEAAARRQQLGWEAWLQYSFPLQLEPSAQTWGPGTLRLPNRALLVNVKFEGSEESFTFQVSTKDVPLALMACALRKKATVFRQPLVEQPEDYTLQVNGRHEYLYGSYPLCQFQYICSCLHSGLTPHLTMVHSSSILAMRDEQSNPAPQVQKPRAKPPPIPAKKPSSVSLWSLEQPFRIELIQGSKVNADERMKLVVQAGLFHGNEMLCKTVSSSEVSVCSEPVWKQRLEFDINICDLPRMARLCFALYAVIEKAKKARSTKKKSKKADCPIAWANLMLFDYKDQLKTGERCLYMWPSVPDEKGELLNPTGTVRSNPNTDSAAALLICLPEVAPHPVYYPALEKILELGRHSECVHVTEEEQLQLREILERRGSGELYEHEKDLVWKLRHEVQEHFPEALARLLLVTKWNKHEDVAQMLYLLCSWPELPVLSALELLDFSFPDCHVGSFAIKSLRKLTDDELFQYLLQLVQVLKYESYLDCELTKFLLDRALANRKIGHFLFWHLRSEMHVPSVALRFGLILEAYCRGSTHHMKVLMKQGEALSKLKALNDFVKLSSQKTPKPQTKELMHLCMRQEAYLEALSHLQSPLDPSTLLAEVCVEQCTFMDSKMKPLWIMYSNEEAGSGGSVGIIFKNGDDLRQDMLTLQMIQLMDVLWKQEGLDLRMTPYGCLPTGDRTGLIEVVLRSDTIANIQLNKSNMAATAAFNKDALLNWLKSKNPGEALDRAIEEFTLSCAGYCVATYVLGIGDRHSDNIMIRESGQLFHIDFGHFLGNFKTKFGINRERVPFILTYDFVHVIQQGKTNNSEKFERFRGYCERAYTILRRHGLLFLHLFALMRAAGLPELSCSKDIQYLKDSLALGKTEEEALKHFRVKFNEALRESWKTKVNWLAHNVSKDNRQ
Sequence of recombinant PI3K δ enzyme (P27986 whole entry partner, species assumed): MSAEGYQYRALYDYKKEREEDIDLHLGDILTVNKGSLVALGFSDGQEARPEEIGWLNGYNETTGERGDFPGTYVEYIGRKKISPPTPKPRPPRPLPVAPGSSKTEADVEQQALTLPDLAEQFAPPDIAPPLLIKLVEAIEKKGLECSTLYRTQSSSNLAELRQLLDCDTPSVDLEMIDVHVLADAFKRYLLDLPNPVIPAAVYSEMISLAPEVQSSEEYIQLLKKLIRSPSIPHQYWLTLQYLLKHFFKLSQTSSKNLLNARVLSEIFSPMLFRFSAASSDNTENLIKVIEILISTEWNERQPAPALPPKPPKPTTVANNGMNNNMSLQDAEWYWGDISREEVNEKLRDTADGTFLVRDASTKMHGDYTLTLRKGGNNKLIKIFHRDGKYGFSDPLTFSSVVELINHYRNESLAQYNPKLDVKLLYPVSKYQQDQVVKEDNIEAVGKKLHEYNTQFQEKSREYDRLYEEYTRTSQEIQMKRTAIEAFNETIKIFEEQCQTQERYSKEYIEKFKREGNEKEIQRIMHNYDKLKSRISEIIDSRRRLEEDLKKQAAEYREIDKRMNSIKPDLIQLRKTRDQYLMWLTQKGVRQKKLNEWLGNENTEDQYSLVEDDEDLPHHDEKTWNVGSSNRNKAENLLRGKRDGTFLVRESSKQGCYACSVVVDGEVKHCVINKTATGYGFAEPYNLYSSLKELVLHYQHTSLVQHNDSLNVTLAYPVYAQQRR

Row | SMILES | IC50
1 | Cn1cc(-c2nc(N3CCOCC3)c3nc(C(=O)N4CCNC(=O)C4)[nH]c3n2)cn1 [compound 31, 4-{[2-(1-Methyl-1H-pyrazol-4-yl)-6-(morpholin-4-yl)-9H-purin-8-yl]carbonyl}piperazin-2-one] | 0.465 µM
2 | Cn1cc(-c2nc(N3CCOCC3)c3nc(C(=O)N4CCN(c5ccccc5)CC4)[nH]c3n2)cn1 [compound 32, [2-(1-Methyl-1H-pyrazol-4-yl)-6-(morpholin-4-yl)-9H-purin-8-yl](4-phenylpiperazin-1-yl)methanone] | 0.056 µM
3 | Cn1cc(-c2nc(N3CCOCC3)c3nc(C(=O)NC4CCCCC4)[nH]c3n2)cn1 [compound 33, N-cyclohexyl-2-(1-methyl-1H-pyrazol-4-yl)-6-(morpholin-4-yl)-9H-purine-8-carboxamide] | 0.366 µM
4 | Cn1cc(-c2nc(N3CCOCC3)c3nc(C(=O)N4CCN(S(C)(=O)=O)CC4)[nH]c3n2)cn1 [compound 34, [2-(1-Methyl-1H-pyrazol-4-yl)-6-(morpholin-4-yl)-9H-purin-8-yl][4-(methylsulfonyl)piperazin-1-yl]methanone] | 0.305 µM
5 | Cn1cc(-c2nc(N3CCOCC3)c3nc(C(=O)N4CCC(c5ccccc5)CC4)[nH]c3n2)cn1 [compound 35, [2-(1-Methyl-1H-pyrazol-4-yl)-6-(morpholin-4-yl)-9H-purin-8-yl](4-phenylpiperidin-1-yl)methanone] | 0.017 µM
6 | Cn1cc(-c2nc(N3CCOCC3)c3nc(C(=O)NCC4CCCCC4)[nH]c3n2)cn1 [compound 36, N-(Cyclohexylmethyl)-2-(1-methyl-1H-pyrazol-4-yl)-6-(morpholin-4-yl)-9H-purine-8-carboxamide] | 0.015 µM
7 | CC(=O)N[C@H]1CCN(C(=O)c2nc3c(N4CCOCC4)nc(-c4cnn(C)c4)nc3[nH]2)C1 [compound 37, N-[(3S)-1-{[2-(1-methyl-1H-pyrazol-4-yl)-6-(morpholin-4-yl)-9H-purin-8-yl]carbonyl}pyrrolidin-3-yl]acetamide] | 0.031 µM
8 | Cn1cc(-c2nc(N3CCOCC3)c3nc(C(=O)N4CC[C@@H](NS(C)(=O)=O)C4)[nH]c3n2)cn1 [compound 38, N-[(3R)-1-{[2-(1-methyl-1H-pyrazol-4-yl)-6-(morpholin-4-yl)-9H-purin-8-yl]carbonyl}pyrrolidin-3-yl]methanesulfonamide] | 0.02 µM
9 | CC(=O)N1CCN(C(=O)c2nc3c(N4CCOCC4)nc(-c4cnn(C)c4)nc3[nH]2)CC1 [compound 39, 1-(4-{[2-(1-Methyl-1H-pyrazol-4-yl)-6-(morpholin-4-yl)-9H-purin-8-yl]carbonyl}piperazin-1-yl)ethanone] | 0.026 µM
10 | Cc1c(-c2nc(N3CCOCC3)c3nc(C(=O)N4CCC(N5CCOCC5)CC4)[nH]c3n2)cnn1C [compound 40, [2-(1,5-Dimethyl-1H-pyrazol-4-yl)-6-(morpholin-4-yl)-9H-purin-8-yl][4-(morpholin-4-yl)piperidin-1-yl]methanone] | 0.028 µM
11 | Cn1cc(-c2nc(N3CCOCC3)c3nc(C(=O)N4CCN(C(=O)OC(C)(C)C)CC4)[nH]c3n2)cn1 [compound 43, Tert-butyl 4-{[2-(1-methyl-1H-pyrazol-4-yl)-6-(morpholin-4-yl)-9H-purin-8-yl]carbonyl}piperazine-1-carboxylate] | 0.057 µM
12 | CN(C)[C@H]1CCN(C(=O)c2nc3c(N4CCOCC4)nc(-c4cnn(C)c4)nc3[nH]2)C1 [compound 44, [(3S)-3-(Dimethylamino)pyrrolidin-1-yl][2-(1-methyl-1H-pyrazol-4-yl)-6-(morpholin-4-yl)-9H-purin-8-yl]methanone] | 0.076 µM
13 | CCOC(=O)CN1CCN(C(=O)c2nc3c(N4CCOCC4)nc(-c4cnn(C)c4)nc3[nH]2)CC1 [compound 45, Ethyl (4-{[2-(1-methyl-1H-pyrazol-4-yl)-6-(morpholin-4-yl)-9H-purin-8-yl]carbonyl}piperazin-1-yl)acetate] | 0.048 µM
14 | CN1CCN(C(=O)c2nc3c(N4CCOCC4)nc(-c4cnn(C)c4)nc3[nH]2)CC1 [compound 46, (4-Methylpiperazin-1-yl)[2-(1-methyl-1H-pyrazol-4-yl)-6-(morpholin-4-yl)-9H-purin-8-yl]methanone] | 0.069 µM
15 | CN1CCC(NC(=O)c2nc3c(N4CCOCC4)nc(-c4cnn(C)c4)nc3[nH]2)CC1 [compound 47, N-(1-Methylpiperidin-4-yl)-2-(1-methyl-1H-pyrazol-4-yl)-6-(morpholin-4-yl)-9H-purine-8-carboxamide] | 0.139 µM
16 | CN(C)C(=O)c1nc2c(N3CCOCC3)nc(-c3cnn(C)c3)nc2[nH]1 [compound 48, N,N-Dimethyl-2-(1-methyl-1H-pyrazol-4-yl)-6-(morpholin-4-yl)-9H-purine-8-carboxamide] | 0.076 µM
17 | Cn1cc(-c2nc(N3CCOCC3)c3nc(C(=O)NC4CCN(Cc5ccccc5)CC4)[nH]c3n2)cn1 [compound 49, N-(1-Benzylpiperidin-4-yl)-2-(1-methyl-1H-pyrazol-4-yl)-6-(morpholin-4-yl)-9H-purine-8-carboxamide] | 0.062 µM
18 | Cn1cc(-c2nc(N3CCOCC3)c3nc(C(=O)N4CCC(CC(=O)O)CC4)[nH]c3n2)cn1 [compound 50, (1-{[2-(1-Methyl-1H-pyrazol-4-yl)-6-(morpholin-4-yl)-9H-purin-8-yl]carbonyl}piperidin-4-yl)acetic acid] | 0.205 µM
19 | CCOC(=O)CC1CCN(C(=O)c2nc3c(N4CCOCC4)nc(-c4cnn(C)c4)nc3[nH]2)CC1 [compound 51, Ethyl (1-{[2-(1-methyl-1H-pyrazol-4-yl)-6-(morpholin-4-yl)-9H-purin-8-yl]carbonyl}piperidin-4-yl)acetate] | 0.056 µM
20 | COCCNC(=O)c1nc2c(N3CCOCC3)nc(-c3cnn(C)c3)nc2[nH]1 [compound 52, N-(2-Methoxyethyl)-2-(1-methyl-1H-pyrazol-4-yl)-6-(morpholin-4-yl)-9H-purine-8-carboxamide] | 0.231 µM
21 | Cn1cc(-c2nc(N3CCOCC3)c3nc(C(=O)N4CCCCC4)[nH]c3n2)cn1 [compound 53, [2-(1-Methyl-1H-pyrazol-4-yl)-6-(morpholin-4-yl)-9H-purin-8-yl](piperidin-1-yl)methanone] | 0.088 µM
22 | CN(C)C1CCN(C(=O)c2nc3c(N4CCOCC4)nc(-c4cnn(C)c4)nc3[nH]2)CC1 [compound 57, [4-(Dimethylamino)piperidin-1-yl][2-(1-methyl-1H-pyrazol-4-yl)-6-(morpholin-4-yl)-9H-purin-8-yl]methanone] | 0.068 µM
23 | CCN(CCN1CCOCC1)C(=O)c1nc2c(N3CCOCC3)nc(-c3cnn(C)c3)nc2[nH]1 [compound 59, N-ethyl-2-(1-methyl-1H-pyrazol-4-yl)-6-(morpholin-4-yl)-N-[2-(morpholin-4-yl)ethyl]-9H-purine-8-carboxamide] | 0.206 µM
24 | CN(CCN1CCOCC1)C(=O)c1nc2c(N3CCOCC3)nc(-c3cnn(C)c3)nc2[nH]1 [compound 60, N-methyl-2-(1-methyl-1H-pyrazol-4-yl)-6-(morpholin-4-yl)-N-[2-(morpholin-4-yl)ethyl]-9H-purine-8-carboxamide] | 0.159 µM
25 | Cn1cc(-c2nc(N3CCOCC3)c3nc(C(=O)N4CC[C@H](O)C4)[nH]c3n2)cn1 [compound 62, [(3S)-3-Hydroxypyrrolidin-1-yl][2-(1-methyl-1H-pyrazol-4-yl)-6-(morpholin-4-yl)-9H-purin-8-yl]methanone] | 0.061 µM
